# Test system: neonatal cardiomyocytes
# Assay: Ang II-induced mitochondrial superoxide (Mitosox) in neonatal cardiomyocytes
# Assay type: cell-based, mouse
# Details: Angiotensin II 1 μM for 3 hours; peptide conjugates 1 nM or equimolar; NAC 0.5 mM
# Procedure: Ventricles from mouse neonates younger than 72 hours will be dissected, minced, and enzymatically digested with Blendzyme 4 (45 mg/mL, Roche). After enzymatic digestion, cardiomyocytes will be enriched using differential pre-plating for 2 hours, and seeded on fibronectin-coated culture dishes for 24 hours in DMEM (Gibco) with 20% Fetal Bovine Seium (Sigma) and 25 μM Arabinosylcytosine (Sigma). Cardiomyocytes will be stimulated with Angiotensin II (1 μM) for 3 hours in serum-free DMEM containing 0.5% insulin transferrin-selenium (Sigma), 2 mM glutamine, and 1 mg/mL BSA. […] Samples will be analyzed using excitation/emission of 488/625 nm by flow cytometry. Flow data will be analyzed using FCS Express (De Novo Software, Los Angeles, Calif., U.S.A.), and presented as histogram distributions of Mitosox fluorescence intensity.
compound,measurement,value
CC(=O)N[C@@H](CS)C(=O)O [N-acetyl cysteine],Ang II-induced Mitosox fluorescence (mitochondrial ROS),not show any effect

# From patent US20180354991A1, “THERAPEUTIC COMPOSITIONS INCLUDING GRAMICIDIN S PEPTIDYL CONJUGATES OR IMIDAZOLE-SUBSTITUTED FATTY ACIDS, VARIANTS THEREOF AND USES THEREOF” (Stealth Biotherapeutics Corp, priority 2015, published 2018)
